# Data published in article doi:10.1101/2023.11.24.568596v1 (biorxiv, 2023).
# Tests used:
# Settings in all cases: binder
# Wnk1 = Wnk1 (Homo sapiens, UniProt Q9H4A3)
# TTK = target: T1, TTK (Homo sapiens, UniProt P33981)
# T1 sequence (P33981 1-857): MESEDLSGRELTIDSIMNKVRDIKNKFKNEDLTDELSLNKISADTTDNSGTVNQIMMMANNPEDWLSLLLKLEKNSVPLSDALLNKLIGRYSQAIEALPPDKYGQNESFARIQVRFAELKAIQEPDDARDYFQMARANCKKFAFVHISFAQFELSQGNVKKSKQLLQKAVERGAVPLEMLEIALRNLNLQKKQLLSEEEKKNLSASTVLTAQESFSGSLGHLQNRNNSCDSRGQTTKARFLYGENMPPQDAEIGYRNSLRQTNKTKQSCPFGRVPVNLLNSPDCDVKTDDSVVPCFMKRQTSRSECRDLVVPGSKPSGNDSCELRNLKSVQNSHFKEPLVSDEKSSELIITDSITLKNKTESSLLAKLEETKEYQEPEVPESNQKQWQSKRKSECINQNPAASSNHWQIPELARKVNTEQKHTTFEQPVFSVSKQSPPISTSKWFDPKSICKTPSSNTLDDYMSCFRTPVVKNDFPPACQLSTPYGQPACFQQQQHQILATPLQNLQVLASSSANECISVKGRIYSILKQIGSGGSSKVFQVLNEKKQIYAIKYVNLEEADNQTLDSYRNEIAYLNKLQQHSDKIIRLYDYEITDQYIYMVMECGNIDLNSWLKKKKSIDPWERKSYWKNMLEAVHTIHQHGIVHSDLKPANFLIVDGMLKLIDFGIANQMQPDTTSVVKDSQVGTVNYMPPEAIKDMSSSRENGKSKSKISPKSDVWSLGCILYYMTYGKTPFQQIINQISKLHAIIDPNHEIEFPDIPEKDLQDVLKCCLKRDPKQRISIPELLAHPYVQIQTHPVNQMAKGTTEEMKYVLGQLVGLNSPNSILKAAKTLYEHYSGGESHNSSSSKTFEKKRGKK
# TLK1 = target: T2, TLK1 (Homo sapiens, UniProt Q9UKI8)
# T2 sequence (Q9UKI8 1-766): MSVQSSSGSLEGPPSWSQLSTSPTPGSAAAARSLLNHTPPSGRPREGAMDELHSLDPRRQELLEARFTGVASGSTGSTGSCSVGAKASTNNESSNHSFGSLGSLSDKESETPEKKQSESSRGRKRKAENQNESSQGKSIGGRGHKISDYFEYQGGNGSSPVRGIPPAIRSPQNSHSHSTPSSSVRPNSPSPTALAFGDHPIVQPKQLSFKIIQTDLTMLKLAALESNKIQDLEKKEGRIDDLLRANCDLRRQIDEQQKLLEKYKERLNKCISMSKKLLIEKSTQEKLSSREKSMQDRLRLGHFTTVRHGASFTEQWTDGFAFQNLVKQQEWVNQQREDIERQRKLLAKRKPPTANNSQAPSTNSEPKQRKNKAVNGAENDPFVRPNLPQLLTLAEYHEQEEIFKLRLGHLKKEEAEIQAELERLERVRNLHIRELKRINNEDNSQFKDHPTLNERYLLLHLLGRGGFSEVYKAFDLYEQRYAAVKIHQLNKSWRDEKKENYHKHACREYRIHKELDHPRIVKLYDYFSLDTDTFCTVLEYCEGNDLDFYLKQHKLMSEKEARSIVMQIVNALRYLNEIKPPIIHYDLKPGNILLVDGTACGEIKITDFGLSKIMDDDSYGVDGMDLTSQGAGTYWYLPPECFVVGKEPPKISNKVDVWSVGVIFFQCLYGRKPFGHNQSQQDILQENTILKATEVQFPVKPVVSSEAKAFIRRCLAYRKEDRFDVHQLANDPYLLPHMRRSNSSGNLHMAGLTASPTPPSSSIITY
# TAF1 = TAF1 (Homo sapiens, UniProt P21675)
# Sequence of TAF1 (P21675 whole entry): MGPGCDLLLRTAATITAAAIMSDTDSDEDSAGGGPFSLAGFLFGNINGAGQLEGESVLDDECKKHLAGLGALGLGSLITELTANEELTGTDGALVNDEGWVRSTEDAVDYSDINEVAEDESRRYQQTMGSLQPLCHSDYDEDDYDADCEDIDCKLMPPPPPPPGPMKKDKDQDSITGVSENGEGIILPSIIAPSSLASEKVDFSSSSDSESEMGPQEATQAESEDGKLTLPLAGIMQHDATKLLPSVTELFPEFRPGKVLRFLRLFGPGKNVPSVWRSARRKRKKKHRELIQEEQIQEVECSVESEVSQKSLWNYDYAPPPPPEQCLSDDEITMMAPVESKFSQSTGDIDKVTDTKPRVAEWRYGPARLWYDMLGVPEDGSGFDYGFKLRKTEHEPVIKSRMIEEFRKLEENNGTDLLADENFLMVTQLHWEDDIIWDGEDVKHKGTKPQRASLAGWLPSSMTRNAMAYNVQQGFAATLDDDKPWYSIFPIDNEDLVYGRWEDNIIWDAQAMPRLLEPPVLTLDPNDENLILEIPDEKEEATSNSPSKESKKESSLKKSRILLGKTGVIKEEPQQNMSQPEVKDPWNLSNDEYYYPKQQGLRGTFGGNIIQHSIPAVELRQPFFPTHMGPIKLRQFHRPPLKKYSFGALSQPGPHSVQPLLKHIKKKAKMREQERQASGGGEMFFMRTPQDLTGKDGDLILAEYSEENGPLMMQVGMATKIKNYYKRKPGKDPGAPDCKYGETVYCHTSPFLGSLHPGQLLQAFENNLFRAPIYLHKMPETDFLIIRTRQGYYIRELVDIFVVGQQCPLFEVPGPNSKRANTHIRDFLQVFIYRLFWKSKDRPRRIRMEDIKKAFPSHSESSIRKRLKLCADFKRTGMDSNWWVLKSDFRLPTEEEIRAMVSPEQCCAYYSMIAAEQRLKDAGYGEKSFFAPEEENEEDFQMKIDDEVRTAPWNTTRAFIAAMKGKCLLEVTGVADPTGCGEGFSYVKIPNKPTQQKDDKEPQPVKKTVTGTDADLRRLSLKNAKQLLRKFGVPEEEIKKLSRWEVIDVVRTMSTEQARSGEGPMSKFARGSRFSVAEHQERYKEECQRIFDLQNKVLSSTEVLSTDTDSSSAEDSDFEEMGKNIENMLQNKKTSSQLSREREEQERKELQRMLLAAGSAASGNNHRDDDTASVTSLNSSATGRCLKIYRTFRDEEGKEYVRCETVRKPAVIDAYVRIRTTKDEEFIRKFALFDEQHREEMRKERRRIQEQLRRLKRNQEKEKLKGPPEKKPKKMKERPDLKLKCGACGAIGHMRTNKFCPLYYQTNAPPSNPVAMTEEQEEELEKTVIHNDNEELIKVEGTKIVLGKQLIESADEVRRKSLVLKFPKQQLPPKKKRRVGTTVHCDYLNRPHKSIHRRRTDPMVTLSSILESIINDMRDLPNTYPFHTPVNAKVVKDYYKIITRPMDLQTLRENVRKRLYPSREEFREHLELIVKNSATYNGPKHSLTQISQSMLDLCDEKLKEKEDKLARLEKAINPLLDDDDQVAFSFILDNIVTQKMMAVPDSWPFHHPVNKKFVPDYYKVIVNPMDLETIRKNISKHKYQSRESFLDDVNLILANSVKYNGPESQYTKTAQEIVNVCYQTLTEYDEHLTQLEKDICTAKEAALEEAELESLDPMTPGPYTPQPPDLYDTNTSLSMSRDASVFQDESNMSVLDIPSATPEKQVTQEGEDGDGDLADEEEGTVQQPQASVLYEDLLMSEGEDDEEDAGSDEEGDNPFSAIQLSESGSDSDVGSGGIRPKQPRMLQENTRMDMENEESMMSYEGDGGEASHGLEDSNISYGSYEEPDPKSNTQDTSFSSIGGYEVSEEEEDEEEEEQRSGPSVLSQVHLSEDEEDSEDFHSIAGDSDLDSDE
# SRPK1 = SRPK1 (Homo sapiens, UniProt Q96SB4)
# Sequence of SRPK1 (Q96SB4 whole entry): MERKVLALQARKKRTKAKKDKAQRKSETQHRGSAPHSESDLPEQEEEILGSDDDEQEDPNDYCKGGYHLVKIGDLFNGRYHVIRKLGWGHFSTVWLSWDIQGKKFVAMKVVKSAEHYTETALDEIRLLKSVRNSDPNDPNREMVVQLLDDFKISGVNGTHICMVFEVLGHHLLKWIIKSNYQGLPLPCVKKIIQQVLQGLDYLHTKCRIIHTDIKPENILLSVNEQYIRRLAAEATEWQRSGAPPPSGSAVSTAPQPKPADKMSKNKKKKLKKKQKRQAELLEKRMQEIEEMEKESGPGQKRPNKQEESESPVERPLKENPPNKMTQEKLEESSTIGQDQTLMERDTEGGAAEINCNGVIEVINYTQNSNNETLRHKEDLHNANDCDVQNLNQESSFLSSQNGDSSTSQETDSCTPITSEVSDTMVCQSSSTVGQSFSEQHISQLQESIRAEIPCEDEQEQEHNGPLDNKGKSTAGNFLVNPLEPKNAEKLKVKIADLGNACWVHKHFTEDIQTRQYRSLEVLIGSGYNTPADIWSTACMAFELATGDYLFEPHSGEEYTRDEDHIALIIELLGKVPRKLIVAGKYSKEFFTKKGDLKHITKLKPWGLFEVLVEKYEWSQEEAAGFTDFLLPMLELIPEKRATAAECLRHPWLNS
# STLK3 = STLK3 (Homo sapiens, UniProt Q9UEW8)
# SLK = SLK (Homo sapiens, UniProt Q9H2G2)
# Sequence of SLK (Q9H2G2 whole entry): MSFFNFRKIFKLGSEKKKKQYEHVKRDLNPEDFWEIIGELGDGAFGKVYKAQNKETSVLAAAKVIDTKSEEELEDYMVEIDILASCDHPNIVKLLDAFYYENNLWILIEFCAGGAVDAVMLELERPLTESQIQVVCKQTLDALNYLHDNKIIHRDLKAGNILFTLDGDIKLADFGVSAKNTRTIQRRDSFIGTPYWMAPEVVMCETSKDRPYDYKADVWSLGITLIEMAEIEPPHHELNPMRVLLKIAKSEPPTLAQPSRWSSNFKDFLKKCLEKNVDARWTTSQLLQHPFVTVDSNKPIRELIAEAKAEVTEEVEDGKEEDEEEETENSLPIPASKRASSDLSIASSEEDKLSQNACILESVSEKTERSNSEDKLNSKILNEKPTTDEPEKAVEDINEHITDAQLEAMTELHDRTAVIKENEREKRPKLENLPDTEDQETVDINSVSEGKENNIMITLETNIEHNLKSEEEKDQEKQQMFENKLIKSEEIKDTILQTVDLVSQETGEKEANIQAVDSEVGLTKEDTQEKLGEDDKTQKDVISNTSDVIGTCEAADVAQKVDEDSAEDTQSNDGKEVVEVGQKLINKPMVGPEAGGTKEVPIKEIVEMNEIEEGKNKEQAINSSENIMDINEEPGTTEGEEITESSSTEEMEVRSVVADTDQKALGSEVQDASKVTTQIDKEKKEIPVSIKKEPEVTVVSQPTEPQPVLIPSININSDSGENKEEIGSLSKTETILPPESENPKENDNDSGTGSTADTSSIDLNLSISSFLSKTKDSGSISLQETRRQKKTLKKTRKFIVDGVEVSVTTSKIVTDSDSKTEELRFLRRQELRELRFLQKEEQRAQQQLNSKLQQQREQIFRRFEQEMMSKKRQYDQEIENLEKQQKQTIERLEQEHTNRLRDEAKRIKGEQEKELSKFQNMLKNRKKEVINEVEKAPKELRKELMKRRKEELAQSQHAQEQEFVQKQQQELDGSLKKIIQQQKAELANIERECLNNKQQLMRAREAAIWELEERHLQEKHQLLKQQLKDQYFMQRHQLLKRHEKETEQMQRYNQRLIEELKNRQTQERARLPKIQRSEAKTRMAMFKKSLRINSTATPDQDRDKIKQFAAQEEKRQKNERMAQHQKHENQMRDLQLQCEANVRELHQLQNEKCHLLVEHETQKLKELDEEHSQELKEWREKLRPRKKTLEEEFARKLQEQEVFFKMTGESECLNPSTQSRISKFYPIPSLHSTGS
# VRK1 = target: T3, VRK1 (Homo sapiens, UniProt Q99986)
# T3 sequence (Q99986 1-396): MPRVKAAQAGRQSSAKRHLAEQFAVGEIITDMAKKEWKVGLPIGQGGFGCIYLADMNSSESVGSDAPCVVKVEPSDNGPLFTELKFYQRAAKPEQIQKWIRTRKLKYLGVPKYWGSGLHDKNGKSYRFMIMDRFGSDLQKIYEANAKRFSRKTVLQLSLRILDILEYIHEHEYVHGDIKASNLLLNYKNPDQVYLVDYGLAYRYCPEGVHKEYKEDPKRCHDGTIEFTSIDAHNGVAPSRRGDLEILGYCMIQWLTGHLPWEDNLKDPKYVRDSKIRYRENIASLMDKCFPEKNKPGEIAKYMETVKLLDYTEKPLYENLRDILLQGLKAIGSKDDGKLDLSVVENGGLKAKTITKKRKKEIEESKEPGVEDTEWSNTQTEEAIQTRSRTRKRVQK
smiles,measurement,setting,value
"CNc1ncc2cc(-c3ccc(-c4cccc(C)n4)cc3Cl)c(=O)n(CCCCN)c2n1 [compound 20, MRLW5]",ΔTm MRLW5 (20),Wnk1,1.7 °C
same,ΔTm MRLW5 (20),TTK,2.7 °C
same,ΔTm MRLW5 (20),TLK1,0.6 °C
same,ΔTm MRLW5 (20),TAF1,0.0 °C
same,ΔTm MRLW5 (20),SRPK1,-0.2 °C
same,ΔTm MRLW5 (20),STLK3,1.8 °C
same,ΔTm MRLW5 (20),SLK,9.1 °C
same,ΔTm MRLW5 (20),VRK1,0.0 °C
"CNc1ncc2cc(-c3ccc(-c4cccc(C)n4)cc3Cl)c(=O)n(CCC3CCNCC3)c2n1 [compound 22, 6-(2-Chloro-4-(6-methylpyridin-2-yl)phenyl)-2-(methylamino)-8-(2-(piperidin-4-yl)ethyl)pyrido[2,3-d]pyrimidin-7(8H)-one]",ΔTm 22,Wnk1,1.5 °C
same,ΔTm 22,TTK,3.7 °C
same,ΔTm 22,TLK1,0.2 °C
same,ΔTm 22,TAF1,0.3 °C
same,ΔTm 22,SRPK1,-0.2 °C
same,ΔTm 22,STLK3,-3.0 °C
same,ΔTm 22,SLK,3.9 °C
same,ΔTm 22,VRK1,-0.7 °C
"CNc1ncc2cc(-c3ccc(-c4cccc(C)n4)cc3Cl)c(=O)n(C[C@H]3CC[C@H](N)CC3)c2n1 [compound 23, 23]",ΔTm 23,Wnk1,2.1 °C
same,ΔTm 23,TTK,3.5 °C
same,ΔTm 23,TLK1,0.6 °C
same,ΔTm 23,TAF1,-0.5 °C
same,ΔTm 23,SRPK1,-0.5 °C
same,ΔTm 23,STLK3,3.3 °C
same,ΔTm 23,SLK,8.3 °C
same,ΔTm 23,VRK1,0.5 °C
"Cc1cccc(-c2ccc(-c3cc4cnc(NC(CO)CO)nc4n(CCCCN)c3=O)c(Cl)c2)n1 [compound 24, 8-(4-Aminobutyl)-6-(2-chloro-4-(6-methylpyridin-2-yl)phenyl)-2-((1,3-dihydroxypropan-2-yl)amino)pyrido[2,3-d]pyrimidin-7(8H)-one]",ΔTm MR24 (24),Wnk1,0.2 °C
same,ΔTm MR24 (24),TTK,-3.0 °C
same,ΔTm MR24 (24),TLK1,-1.8 °C
same,ΔTm MR24 (24),TAF1,-0.1 °C
same,ΔTm MR24 (24),SRPK1,-0.1 °C
same,ΔTm MR24 (24),STLK3,9.1 °C
same,ΔTm MR24 (24),SLK,1.9 °C
same,ΔTm MR24 (24),VRK1,0.4 °C
"Cc1cccc(-c2ccc(-c3cc4cnc(NCCCc5ccc(N)cc5)nc4n(CCCCN)c3=O)c(Cl)c2)n1 [compound 25, 8-(4-Aminobutyl)-2-((3-(4-aminophenyl)propyl)amino)-6-(2-chloro-4-(6-methylpyridin-2-yl)phenyl)pyrido[2,3-d]pyrimidin-7(8H)-one]",ΔTm 25,Wnk1,2.7 °C
same,ΔTm 25,TTK,1.8 °C
same,ΔTm 25,TLK1,-0.9 °C
same,ΔTm 25,TAF1,-0.1 °C
same,ΔTm 25,SRPK1,0.1 °C
same,ΔTm 25,STLK3,13.0 °C
same,ΔTm 25,SLK,5.0 °C
same,ΔTm 25,VRK1,0.6 °C
"Cc1cccc(-c2ccc(-c3cc4cnc(NCCCN5CCOCC5)nc4n(CCCCN)c3=O)c(Cl)c2)n1 [compound 26, MR26]",ΔTm MR26 (26),Wnk1,1.0 °C
same,ΔTm MR26 (26),TTK,-0.2 °C
same,ΔTm MR26 (26),TLK1,-1.6 °C
same,ΔTm MR26 (26),TAF1,0.0 °C
same,ΔTm MR26 (26),SRPK1,0.1 °C
same,ΔTm MR26 (26),STLK3,10.4 °C
same,ΔTm MR26 (26),SLK,2.3 °C
same,ΔTm MR26 (26),VRK1,0.4 °C
